How the values were obtained:
[1] = test system: CGRP (Calcitonin Gene-Related Peptide); conditions: isolated rat skin; Averbeck et al. 2003; cited from earlier work
[2] = test system: PGE2 (prostaglandin E2); assay: in vitro whole blood culture test system, zymosan activation: PGE2 formation; type: cell-based; conditions: human whole blood from 3 donors, 2 hours pre-incubation with 0.39, 1.56, 6.25, 25 and 100 µg tarenflurbil/ml, then zymosan
Procedure: (§1) In an in vitro whole blood culture test system with human whole blood from 3 donors in each case, pre-incubation was carried out for 2 hours with 0.39, 1.56, 6.25, 25 and 100 µg tarenflurbil/ml whole blood before activation with zymosan (agent for producing sterile inflammations) took place. In total the following 37 parameters were measured which allow a broad overview of the reaction of the leucocytes under inflammatory conditions and thus also of the effects of tarenflurbil in such an environment: • 1. Amphiregulin • 2. Brain-derived neurotrophic factor (BDNF) • 3. Interleukin-1 alpha (IL-1α) • 4. IL-1β • 5. IL-1 receptor antagonist (IL-1Ra) • 6. IL-2 • 7. IL-3 • 8. IL-4 • 9. IL-5 • 10. IL-6 • 11. IL-7 • 12. IL-8 • 13. IL-10 • 14. IL-12, p40 subunit (IL-12p40) • 15. IL-12p70 • 16. IL-15 • 17. IL-17 • 18. IL-18 • 19. IL-23 • 20. Epiregulin • 21. Eotaxin (Eot.) • 22. Factor VII (F. VII) • 23. Granulocyte-monocytes colony stimulating factor (GM-CSF) • 24. Interferon gamma (IFNγ) • 25. Intercellular adhesion molecule-1 (ICAM-1) • 26. Monocyte chemoattractand protein-1 (MCP-1) • 27. Migration inhibitory protein-1 alpha (MIP-1α) • 28. MIP-1ß • 29. Matrix-metalloproteinase-2 (MMP-2) • 30. MMP-3 • 31. MMP-9 • 32. Oncostatin M (OSM) • 33. Stem-cell factor (SCF) • 34. […] (TGFα) • 35. Tumor necrosis factor alpha (TNFα) • 36. TNFß • 37. Vascular endothelial growth factor (VEGF)

[3] = test system: BDNF (brain-derived neurotrophic factor); assay: in vitro whole blood culture test system, zymosan activation: BDNF release; type: cell-based; conditions: human whole blood from 3 donors, 0.39-100 µg tarenflurbil/ml
Procedure: In an in vitro whole blood culture test system with human whole blood from 3 donors in each case, pre-incubation was carried out for 2 hours with 0.39, 1.56, 6.25, 25 and 100 µg tarenflurbil/ml whole blood before activation with zymosan (agent for producing sterile inflammations) took place. In total the following 37 parameters were measured which allow a broad overview of the reaction of the leucocytes under inflammatory conditions and thus also of the effects of tarenflurbil in such an environment: • 1. […] Brain-derived neurotrophic factor (BDNF) • 3.

[4] = test system: TGFß (transforming growth factor ß); assay: in vitro whole blood culture test system, zymosan activation: TGFß release; type: cell-based; conditions: human whole blood from 3 donors, 0.39-100 µg tarenflurbil/ml
Procedure: as §1

[5] = in humans; Geisslinger et al., J Clin Pharmacol. 1996; cited from earlier work
[6] = test system: isolated rat skin; conditions: Pethö et al. 2001, the authors attributed the effect to S-flurbiprofen impurity; cited from earlier work
[7] = in mice; Leipold et al., Chirality 2004; cited from earlier work
[8] = test system: LT-C4/E4/D4; assay: in vitro whole blood culture test system, zymosan activation: leukotriene synthesis; type: cell-based; conditions: human whole blood, in allergy sufferers (Donor B), 0.39-100 µg tarenflurbil/ml, Figure 1
Procedure: In an in vitro whole blood culture test system with human whole blood from 3 donors in each case, pre-incubation was carried out for 2 hours with 0.39, 1.56, 6.25, 25 and 100 µg tarenflurbil/ml whole blood before activation with zymosan (agent for producing sterile inflammations) took place. […] A group determination of LT-C4/E4/D4 was carried out.

[9] = test system: UV erythema (sunburn); assay: UV erythema test, twice the minimum erythema dose (Example 2); type: in vivo, human; conditions: four test subjects, skin of the back, topical spray 0.1, 0.25, 1 and 4% (w/w), visual score and spectroscopic colour measurement, 0-48 hours
Procedure: The clinical-pharmacological studies of the following Examples 2 to 4 were carried out on healthy adults as model for non-immunological inflammation. In a preliminary test on the skin of the back involving a group of four test subjects, the "minimum erythema dose" following irradiation with a standardized daylight irradiation apparatus ([…]) was established. In the main test 8 areas of the skin of the back of each subject were irradiated with twice the "minimum erythema dose" and then treated with tarenflurbil spray with 0.1, 0.25, 1 and 4% tarenflurbil (w/w) as well as the associated placebo formulations and the comparison preparations (triamcinolone acetonide 0.2% (w/w); mometasone furoate solution 0.1% (w/w)). […] The effect of the test preparation with the highest tarenflurbil concentration was much more marked than with the comparison solutions triamcinolone acetonide 0.2% (w/w) or mometasone furoate 0.1% (w/w).

[10] = test system: Alzheimer's disease; conditions: extensive clinical Phase III studies; WO 2005/065069, Imbimbo 2009; cited from earlier work

SMILES | inhibition of the release of CGRP [1] | PGE2 (prostaglandin E2) formation [2] | BDNF (brain-derived neurotrophic factor) release [3] | TGFß (transforming growth factor ß) release [4] | conversion to S-flurbiprofen [5] | effect on bradykinin-induced nociceptor sensitization to heat [6] | bioinversion into S-flurbiprofen [7] | leukotriene synthesis (LT-C4/E4/D4) [8] | degree of erythema (UV erythema) [9] | efficacy against Alzheimer's disease [10]
C[C@@H](C(=O)O)c1ccc(-c2ccccc2)c(F)c1 [tarenflurbil, (R)-2-(3-fluoro-4-phenylphenyl)propionic acid] | ineffective | dose-dependent reduction | dose-dependent reduction | dose-dependent reduction | not to be converted to S-flurbiprofen | effective | considerable bioinversion | dose-dependent reduction | dose-dependent reduction | ineffective
C[C@H](C(=O)O)c1ccc(-c2ccccc2)c(F)c1 [S-flurbiprofen] | effective | – | – | – | – | – | – | – | – | –
